Test results: patent US20100022582A1, “Tetrahydroisoquinoline Compound and Medicinal Use Thereof” (priority 2005, published 2010)

Legend:
[1] = system: brain homogenate lipid peroxidation; assay: Lipid peroxidation-inhibitory action (brain homogenate, MDA); format: biochemical, SD rat; conditions: rat brain homogenate, 37° C. for 30 min
Method: The brain was removed from male SD rat, and a 50 mM phosphate buffer (pH 7.4, 5-fold amount of brain weight) was added. The mixture was homogenized under ice-cooling for 30 sec, and centrifuged at 4° C., 3200 rpm for 10 min. The supernatant was diluted 5-fold with 50 mM phosphate buffer to give a brain homogenate. A test compound (10 μL) was placed in a glass test tube, the brain homogenate (1 mL) was added, and the mixture was incubated at 37° C. for 30 min. 20% Trichloroacetic acid (1 mL) was added to quench the reaction. The reaction mixture was centrifuged at room temperature, 4000 rpm for 10 min. Thiobarbituric acid (0.2 mL) was added to the supernatant (1 mL) and the mixture was heated at 95° C. for 15 min. The absorbance at 532 nm was measured, and lipid peroxide was quantified as malondialdehyde (MDA). The MDA level was compared between the control and the test compound-added sample, and the lipid peroxidation inhibitory rate was calculated.

[2] = Stable radical elimination action (DPPH); conditions: 0.1 mM DPPH
Method: 0.1 mM Diphenyl-2-picrylhydrazyl (DPPH) acetonitrile (CH3CN) solution (3 mL) was placed in a glass test tube, and a DMSO solution of a test compound was added at a 1% dose (30 μL). As a control, 0.1 mM DPPH CH3CN solution (3 mL) containing DMSO (30 μL) was used and for a blank test, CH3CN (3 mL) containing DMSO (30 μL) was used. After standing the solutions at room temperature for 60 min (20 min for Examples 69, 72 and 73), the absorbance at 517 nm was measured by a spectrophotometer. A stable radical inhibitory rate when control was 100% was calculated from [(absorbance of test substance−absorbance of blank test)÷(absorbance of control−absorbance of blank test)].

[3] = system: liver ACAT; assay: ACAT inhibitory activity (rabbit liver microsome, cholesteryl oleate production); format: biochemical, Japanese white rabbits; conditions: 37° C. for 20 min
Method: Male Japanese white rabbits (body weight 2-2.5 kg) were bred on 100 g of a high cholesterol feed (feed added with cholesterol 1%, CLEA Japan, Inc.) daily for 4 weeks and sacrificed by exsanguination under anesthesia. The liver was removed, homogenated and centrifuged at 10,000 rpm and 4° C. for 15 min. The obtained supernatant was further centrifuged at 41,000 rpm and 4° C. for 60 min to give a microsome fraction. To a 0.15 M phosphate buffer were added the microsome suspension as an enzyme specimen, dimethyl sulfoxide (DMSO) or a solution (3 μL) of a test compound in DMSO and [1-14C]-oleoyl-CoA to be a reaction substrate to the total amount of 300 μL. After incubation at 37° C. for 20 min, a mixed solution of chloroform-methanol was added to quench the reaction. Water was added thereto and mixed, and the chloroform layer was separated. The solvent was evaporated to dryness and the residue was redissolved in n-hexane. The resulting solution was subjected to thin layer chromatography using a silica gel plate. The spot of cholesteryl oleate on the silica gel plate was scraped and quantified on a liquid scintillation counter. The ACAT inhibitory activity of the test compound is shown in cholesteryl oleate production inhibitory rate (%) [level of inhibition of cholesteryl oleate production as compared to the control].

[4] = Oral administration experiment (plasma concentration); format: in vivo; conditions: (10 mg)/kg orally, male SD rats, plasma 0.5-6 hr
Method: The test compound (10 mg)/kg suspended in 5% gum arabic solution was forcedly administered orally to male SD rats (body weight 200-250 g). At 0.5, 1, 2, 4, 6 hr after administration, blood was drawn without anesthesia, and heparin plasma was separated by a conventional method. The concentration of the test compound in the plasma was measured by high performance liquid chromatography.

[5] = system: THP-1 cell-derived macrophage; assay: Cholesterol ester accumulation-inhibitory activity (THP-1 cell-derived macrophage foam cell formation); format: cell-based; conditions: THP-1 macrophage, acetyl LDL, 3 days
Method: THP-1 cells (DAINIPPON PHARMACEUTICAL CO., LTD.) were subcultured in RPMI-1640 medium containing 10% fetal calf serum (FBS), and cells at 6-13th passage after purchase were used. The cells were suspended in FBS-containing RPMI-1640 medium to give a suspension having a concentration of 4×10^5 cells/mL. The cell suspension was seeded on 12-well microplate by 1 mL, and treated with phorbol 12-myristate 13-acetate (PMA, 200 nM) as a differentiation inducer into macrophage. Then, acetyl LDL (400 μg/mL) separately prepared from LDL derived from plasma of a rabbit with genetic hyperlipidemia (KHC rabbit, Japan Laboratory Animals Inc.) was added. A test compound further dissolved in dimethyl sulfoxide (DMSO) and diluted with FBS-containing RPMI-1640 medium and a control solvent were applied. After cultivation in a carbon dioxide incubator for 3 days, the cells were washed with phosphate-buffered saline (pH 7.0), and the lipid was extracted with hexane-isopropanol (3:2). In addition, the cells were lysed with 1N-NaOH, and the protein content was measured. Free cholesterol and cholesterol ester in the lipid extraction sample were measured according to the method of Kunitomo et al. [Japan. J. Pharmacol., 34, 153-158 (1984)]. Cholesterol esters in the control cells and the cells treated with the test compound were compared, and the cholesterol ester accumulation inhibitory rate of the test compound was calculated.

| maximum blood concentration [4] | Structure (SMILES) | inhibitory rate (%) (10^−4M), lipid peroxidation [1] | inhibitory rate (%) (10^−4M), stable radical ([2]; room temperature for 60 min) | inhibitory rate (%) (10^−4M), stable radical ([2]; room temperature 20 min (Examples 69, 72 and 73)) | liver ACAT inhibition rate (%) (concentration: 10^−6 M) [3] | cholesteryl ester accumulation inhibitory rate (%) (concentration: 10^−6 M) [5] |
| --- | --- | --- | --- | --- | --- | --- |
| – | CC(C)(C)CN1Cc2ccccc2C[C@H]1C(=O)Nc1cc(C(C)(C)C)c(O)c(C(C)(C)C)c1 [Example 47, N-(3,5-di-tert-butyl-4-hydroxyphenyl)-2-(2,2-dimethylpropyl)-1,2,3,4-tetrahydroisoquinoline-(3S)-carboxamide] | 100.1% | 66.1% | – | – | – |
| – | Cc1cc(NC(=O)[C@@H]2Cc3ccccc3CN2CC(C)(C)C)c(C)c(C)c1O.Cl [Example 48, 2-(2,2-dimethylpropyl)-N-(4-hydroxy-2,3,5-trimethylphenyl)-1,2,3,4-tetrahydroisoquinoline-(3S)-carboxamide hydrochloride] | 100.5% | 91.7% | – | – | – |
| – | Cc1cc(NC(=O)[C@@H]2Cc3ccccc3CN2C(=O)C(C)C)c(C)c(C)c1O [Example 50, N-(4-hydroxy-2,3,5-trimethylphenyl)-2-isobutyryl-1,2,3,4-tetrahydroisoquinoline-(3S)-carboxamide] | 85.7% | – | – | – | – |
| – | CCCCCN1Cc2ccccc2C[C@H]1C(=O)Nc1cc(C(C)(C)C)c(O)c(C(C)(C)C)c1 [Example 51, N-(3,5-di-tert-butyl-4-hydroxyphenyl)-2-pentyl-1,2,3,4-tetrahydroisoquinoline-(3S)-carboxamide] | 100.3% | 63.8% | – | – | – |
| 0.91 µg/mL | Cc1cc(NC(=O)[C@@H]2Cc3ccc(N(C)C)cc3CN2C(=O)C(C)C)c(C)c(C)c1O.Cl [Example 72, 7-dimethylamino-N-(4-hydroxy-2,3,5-trimethylphenyl)-2-isobutyryl-1,2,3,4-tetrahydroisoquinoline-(3S)-carboxamide hydrochloride] | – | – | 97.0% | 91.4% | 80.5% |
| – | CCCN1Cc2cc(N(C)C)ccc2C[C@H]1C(=O)Nc1cc(C)c(O)c(C)c1C [Example 84, 7-dimethylamino-N-(4-hydroxy-2,3,5-trimethylphenyl)-2-propyl-1,2,3,4-tetrahydroisoquinoline-(3S)-carboxamide] | 100.9% | 71.9% | – | – | – |
| 0.60 µg/mL | Cc1cc(NC(=O)[C@@H]2Cc3ccc(N4CCN(C)CC4)cc3CN2C(=O)C(C)(C)C)c(C)c(C)c1O [Example 122, 2-(2,2-dimethylpropionyl)-N-(4-hydroxy-2,3,5-trimethylphenyl)-7-(4-methylpiperazin-1-yl)-1,2,3,4-tetrahydroisoquinoline-(3S)-carboxamide] | 75.9% | 72.3% | – | – | – |
| – | CCCCCCCC(C)(C)CN1Cc2cc(OC(C)(C)C(=O)O)ccc2C[C@H]1c1cc(C)c(O)c(C)c1C [Example 132, 2-{[2-(2,2-dimethylnonyl)-(3S)-(4-hydroxy-2,3,5-trimethylphenyl)-1,2,3,4-tetrahydroisoquinolin-7-yl]oxy}-2-methylpropionic acid] | 105.6% | 80.7% | – | – | – |
| 0.48 µg/mL | CCN(CC)Cc1ccc2c(c1)CN(C(=O)C(C)(C)C)[C@H](C(=O)Nc1cc(C)c(O)c(C)c1C)C2 [Example 133, 7-diethylaminomethyl-2-(2,2-dimethylpropionyl)-N-(4-hydroxy-2,3,5-trimethylphenyl)-1,2,3,4-tetrahydroisoquinoline-(3S)-carboxamide] | – | 65.5% | – | – | – |
| – | CCCN(C)Cc1ccc2c(c1)CN(C(=O)C(C)(C)C)[C@H](C(=O)Nc1cc(C)c(O)c(C)c1C)C2 [Example 136, 2-(2,2-dimethylpropionyl)-N-(4-hydroxy-2,3,5-trimethylphenyl)-7-(N-methylpropylamino)methyl-1,2,3,4-tetrahydroisoquinoline-(3S)-carboxamide] | 89.6% | 71.3% | – | – | 66.4% |
| 0.42 µg/mL | CCCN(C)Cc1ccc2c(c1)CN(C(=O)C(C)C)[C@H](C(=O)Nc1cc(C)c(O)c(C)c1C)C2 [Example 138, N-(4-hydroxy-2,3,5-trimethylphenyl)-2-isobutyryl-7-(N-methylpropylamino)methyl-1,2,3,4-tetrahydroisoquinoline-(3S)-carboxamide] | – | – | – | – | – |
| – | Cc1cc(NC(=O)[C@@H]2Cc3ccc(CN(C)CCF)cc3CN2C(=O)C(C)(C)C)c(C)c(C)c1O [Example 139, 2-(2,2-dimethylpropionyl)-7-(2-fluoro-N-methylethylamino)methyl-N-(4-hydroxy-2,3,5-trimethylphenyl)-1,2,3,4-tetrahydroisoquinoline-(3S)-carboxamide] | 99.7% | – | – | – | 84.6% |
| 0.44 µg/mL | Cc1cc(NC(=O)[C@@H]2Cc3ccc(CNCCF)cc3CN2C(=O)C(C)(C)C)c(C)c(C)c1O.Cl [Example 140, 2-(2,2-dimethylpropionyl)-7-(2-fluoroethylamino)methyl-N-(4-hydroxy-2,3,5-trimethylphenyl)-1,2,3,4-tetrahydroisoquinoline-(3S)-carboxamide hydrochloride] | – | – | – | – | – |
| 0.49 µg/mL | Cc1cc(NC(=O)[C@@H]2Cc3ccc(CN4CC(F)C4)cc3CN2C(=O)C(C)(C)C)c(C)c(C)c1O.Cl [Example 141, 2-(2,2-dimethylpropionyl)-7-(3-fluoroazetidin-1-yl)methyl-N-(4-hydroxy-2,3,5-trimethylphenyl)-1,2,3,4-tetrahydroisoquinoline-(3S)-carboxamide hydrochloride] | 94.8% | 63.7% | – | – | 88.0% |
| 0.46 µg/mL | COC1CN(Cc2ccc3c(c2)CN(C(=O)C(C)(C)C)[C@H](C(=O)Nc2cc(C)c(O)c(C)c2C)C3)C1.Cl [Example 143, 2-(2,2-dimethylpropionyl)-N-(4-hydroxy-2,3,5-trimethylphenyl)-7-(3-methoxyazetidin-1-yl)methyl-1,2,3,4-tetrahydroisoquinoline-(3S)-carboxamide hydrochloride] | 64.1% | 61.0% | – | – | 60.9% |
